Results on 20 compounds are retold here after ChEMBL document CHEMBL4699427, “A3- and A2B-fluorocorroles: synthesis, X-ray characterization and antiviral activity evaluation against human cytomegalovirus infection” (RSC Med Chem, 2020).

Data set [1] can be described thus: Selectivity index, ratio of CC50 for human MRC5 cells to IC50 for human Cytomegalovirus infected in human MRC5 cells incubated for 6 days. It counts as toxicity, cell-based. Particulars: time 6 day, read-out: Ratio CC50/IC50; call rule not given here.
The test system of data set [2] is Human betaherpesvirus 5. The data set can be described thus: Antiviral activity against human Cytomegalovirus infected in human ARPE-19 cells assessed as reduction in infection rate incubated for 6 days by Hoechst 33342 staining based microscopic analysis. Type of data set: functional, cell-based.
Data set [3] can be described thus: Cytotoxicity against human MRC5 cells assessed as reduction in cell viability incubated for 6 days by Hoechst 33342 staining based microscopic analysis. Particulars: time 6 day.
The subject of data set [4] is Human betaherpesvirus 5. The data set can be described thus: Antiviral activity against Human Cytomegalovirus infected in human MRC5 cells assessed as reduction in infection rate incubated for 6 days by Hoechst 33342 staining based microscopic analysis. It counts as functional, cell-based.
Data set [5] can be described thus: Cytotoxicity against human ARPE-19 cells assessed as reduction in cell viability incubated for 6 days by Hoechst 33342 staining based microscopic analysis. Particulars: time 6 day.
The nature of data set [6]: Selectivity index, ratio of CC50 for human MRC5 cells to IC50 for human Cytomegalovirus infected in human ARPE-19 cells incubated for 12 days. It counts as toxicity, cell-based. Particulars: time 6 day, read-out: Ratio CC50/IC50.
Data set [7] deals with Human betaherpesvirus 5. The experiment in a line: Antiviral activity against human Cytomegalovirus infected in human ARPE-19 cells assessed as reduction in infection rate incubated for 12 days by Hoechst 33342 staining based microscopic analysis. Particulars: Human betaherpesvirus 5, ARPE-19, 288 h. Type of data set: functional, cell-based.
Data set [8] can be described thus: Drug uptake in rabbit RK13 cells incubated for 24 hrs by Hoechst staining based microscopic analysis. Type of data set: ADME, cell-based, Oryctolagus cuniculus. To be noted: rk13, 24 h.
The nature of data set [9]: Selectivity index, ratio of CC50 for human MRC5 cells to IC50 for human Cytomegalovirus infected in human ARPE-19 cells incubated for 10 days. Type of data set: toxicity, cell-based. Particulars: time 6 day, read-out: Ratio CC50/IC50.
The test system of data set [10] is Human betaherpesvirus 5. The data set can be described thus: Antiviral activity against human Cytomegalovirus infected in human ARPE-19 cells assessed as reduction in infection rate incubated for 10 days by Hoechst 33342 staining based microscopic analysis. It counts as functional, cell-based.
In data set [11] the test system is Human betaherpesvirus 5. The experiment in a line: Antiviral activity against human Cytomegalovirus infected in human MRC5 cells assessed as reduction in viral replication incubated for 6 days by Hoechst 33342 staining based microscopic analysis. It counts as functional, cell-based. To be noted: Human betaherpesvirus 5, MRC5, 144 h.
The mark [12] stands for this setting: Human betaherpesvirus 5, MRC5, 144 h, read-out: IC50.
Where [13] appears, read: Human betaherpesvirus 5, ARPE-19, 240 h, read-out: IC50.

In the case of `Fc1cc(-c2c3nc(c4ccc([nH]4)c(-c4ccnc(F)c4)c4ccc([nH]4)c(-c4ccnc(F)c4)c4ccc2[nH]4)C=C3)ccn1`, the selectivity ratio at 144 h in [1] came out at 13. In addition, the concentration for half-maximal inhibition (IC50) (usually the point on the concentration scale where inhibition reaches its midpoint) was determined as 0.15 µM in the data set on Human betaherpesvirus 5 [2] (Human betaherpesvirus 5, ARPE-19, 144 h, read-out: IC50) and 0.46 µM in the data set on Human betaherpesvirus 5 [4] (setting [12]). Further, the 50% cytotoxic concentration (CC50) (commonly the concentration at which the toxic effect on the cells reaches its halfway point) at 144 h in data set [3] was 6.25 µM; in data set [5], 6.17 µM.
Consider `Fc1cc(-c2c3nc(c4ccc([nH]4)c(-c4cc(F)c(F)c(F)c4F)c4ccc([nH]4)c(-c4cc(F)c(F)c(F)c4F)c4ccc2[nH]4)C=C3)c(F)c(F)c1F`, for which the selectivity ratio at 144 h in data set [1] is above 7; in data set [6], above 13. Moreover, the CC50 at 144 h in data set [3] was above 50 µM. For the same compound, the results for the IC50 with Human betaherpesvirus 5 [4] (setting [12]) and in the data set with Human betaherpesvirus 5 [7] were 6.42 µM and 3.71 µM, respectively.
Take `Fc1cc(-c2c3nc(c4ccc([nH]4)c(-c4cc(F)c(F)c(F)c4)c4ccc([nH]4)c(-c4cc(F)c(F)c(F)c4)c4ccc2[nH]4)C=C3)cc(F)c1F`: in [1], the selectivity ratio at 144 h is above 7. Further, the IC50 result with Human betaherpesvirus 5 [2] (arpe-19) was “Not Active”; in the data set with Human betaherpesvirus 5 [4] (setting [12]) it was 6.3 µM. The cytotoxic concentration (CC50) at 144 h in data set [3] and in [5] was above 50 µM throughout.
With `COc1ccc(F)c(-c2c3nc(c4ccc([nH]4)c(-c4cc(OC)ccc4F)c4ccc([nH]4)c(-c4cc(OC)ccc4F)c4ccc2[nH]4)C=C3)c1`, the IC50 result with Human betaherpesvirus 5 [2] (arpe-19) and in the data set with Human betaherpesvirus 5 [4] (mrc5) was “Not Active” each time. Besides, the CC50 at 144 h in data set [3] and in data set [5] was above 50 µM in each case.
Consider `O=S(=O)(O)CCNc1c(F)c(F)c(-c2c3nc(c4ccc([nH]4)c(-c4c(F)c(F)c(NCCS(=O)(=O)O)c(F)c4F)c4ccc([nH]4)c(-c4c(F)c(F)c(NCCS(=O)(=O)O)c(F)c4F)c4ccc2[nH]4)C=C3)c(F)c1F`, for which the IC50 result in the data set on Human betaherpesvirus 5 [2] (arpe-19) and in the data set with Human betaherpesvirus 5 [4] (mrc5) was “Not Active” each time. For the same compound, the 50% cytotoxic concentration (CC50) at 144 h in data set [3] and in [5] was above 50 µM in each case.
Turning to `Fc1cc(F)c(F)c(-c2c3ccc([nH]3)c(-c3c(F)c(F)cc(F)c3F)c3nc(c4ccc([nH]4)c(-c4c(F)c(F)cc(F)c4F)c4ccc2[nH]4)C=C3)c1`, the figures for the selectivity ratio at 144 h in data set [1] and in data set [9] were 18.5 and 62, respectively. The half-maximal cytotoxic concentration (CC50) at 144 h in data set [3] was 21.5 µM. Further, the IC50 came out at 1.16 µM in the data set with Human betaherpesvirus 5 [4] (setting [12]) and 0.5 µM with Human betaherpesvirus 5 [10] (setting [13]). For the same compound, the Drug uptake result in data set [8] is “Active”.
As to `O=[N+]([O-])c1cc(F)cc(-c2c3nc(c4ccc([nH]4)c(-c4cc(F)cc([N+](=O)[O-])c4)c4ccc([nH]4)c(-c4c(F)c(F)cc(F)c4F)c4ccc2[nH]4)C=C3)c1`, the 50% cytotoxic concentration (CC50) at 144 h in data set [3] came out at 36.7 µM. The half-inhibitory concentration (IC50) result with Human betaherpesvirus 5 [4] (mrc5) was “Not Active”.
Regarding `Fc1cc(F)cc(-c2c3nc(c4ccc([nH]4)c(-c4cc(F)cc(F)c4)c4ccc([nH]4)c(-c4cc(F)cc(F)c4)c4ccc2[nH]4)C=C3)c1`, the IC50 entry in the data set on Human betaherpesvirus 5 [2] (arpe-19) and with Human betaherpesvirus 5 [4] (mrc5) was “Not Active” throughout. Besides, the CC50 at 144 h in data set [3] and in data set [5] was above 50 µM throughout.
As for `Fc1cc(F)c(F)c(-c2c3ccc([nH]3)c(-c3c(F)c(F)c(F)c(F)c3F)c3nc(c4ccc([nH]4)c(-c4c(F)c(F)c(F)c(F)c4F)c4ccc2[nH]4)C=C3)c1F`, the selectivity ratio at 144 h was 9.77 in data set [1] and 151 in data set [9]. The CC50 at 144 h in [3] was 3.03 µM. The IC50 in the data set with Human betaherpesvirus 5 [4] (setting [12]) and in the data set on Human betaherpesvirus 5 [10] (setting [13]) was 0.31 µM each time.
Regarding `Fc1cc(-c2c3ccc([nH]3)c(-c3c(F)c(F)cc(F)c3F)c3nc(c4ccc([nH]4)c(-c4c(F)c(F)cc(F)c4F)c4ccc2[nH]4)C=C3)ccn1`, the selectivity ratio at 144 h stood at 10.8 in [1] and 114 in [9]. Moreover, in data set [3], the CC50 at 144 h was 0.65 µM. In addition, the half-inhibitory concentration (IC50) with Human betaherpesvirus 5 [4] (setting [12]) was 0.06 µM; in the data set on Human betaherpesvirus 5 [10] (setting [13]) it was 0.05 µM.
The matching figures for `O=[N+]([O-])c1ccc(-c2c3ccc([nH]3)c(-c3c(F)c(F)cc(F)c3F)c3nc(c4ccc([nH]4)c(-c4c(F)c(F)cc(F)c4F)c4ccc2[nH]4)C=C3)c(C(F)(F)F)c1`: 4.49, 18.6, 11 µM, 2.45 µM and 0.33 µM.
For `CN(C)c1c(F)c(F)c(-c2c3nc(c4ccc([nH]4)c(-c4c(F)c(F)c(N(C)C)c(F)c4F)c4ccc([nH]4)c(-c4c(F)c(F)cc(F)c4F)c4ccc2[nH]4)C=C3)c(F)c1F`, the results for the selectivity ratio at 144 h in data set [1] and in data set [9] were above 26.2 and 26.6, respectively. Besides, the CC50 at 144 h in data set [3] is above 50 µM. The 50% inhibitory concentration (IC50) with Human betaherpesvirus 5 [4] (setting [12]) was determined as 1.91 µM; in the data set with Human betaherpesvirus 5 [10] (setting [13]) it was 1.88 µM.
In the case of `Fc1cc(F)c(F)c(-c2c3nc(c4ccc([nH]4)c(-c4c(F)c(F)cc(F)c4F)c4ccc([nH]4)c(-c4cccnc4)c4ccc2[nH]4)C=C3)c1F`, the selectivity ratio at 144 h in [1] stood at 11.6. In addition, the CC50 at 144 h in [3] came to 12.8 µM. Also, in the data set on Human betaherpesvirus 5 [4] (setting [12]), the half-inhibitory concentration (IC50) is 1.1 µM.
`Fc1ccc(F)c(-c2c3nc(c4ccc([nH]4)c(-c4cc(F)ccc4F)c4ccc([nH]4)c(-c4cc(F)ccc4F)c4ccc2[nH]4)C=C3)c1`: the IC50 result in the data set with Human betaherpesvirus 5 [2] (arpe-19) and in the data set with Human betaherpesvirus 5 [4] (mrc5) was “Not Active” throughout. Also, the CC50 at 144 h in [3] and in data set [5] was above 50 µM each time.
As to `Cc1ccc(F)c(-c2c3nc(c4ccc([nH]4)c(-c4cc(C)ccc4F)c4ccc([nH]4)c(-c4cc(C)ccc4F)c4ccc2[nH]4)C=C3)c1`, the IC50 entry in the data set with Human betaherpesvirus 5 [2] (arpe-19) and with Human betaherpesvirus 5 [4] (mrc5) was “Not Active” in each case. The CC50 at 144 h in [3] and in [5] was above 50 µM in each case.
In the case of `Fc1cc(F)c(-c2c3nc(c4ccc([nH]4)c(-c4c(F)cc(F)cc4F)c4ccc([nH]4)c(-c4c(F)cc(F)cc4F)c4ccc2[nH]4)C=C3)c(F)c1`, in [1], the selectivity ratio at 144 h was above 9. The half-maximal inhibitory concentration (IC50) is 5.57 µM with Human betaherpesvirus 5 [11] and “Not Active” in the data set with Human betaherpesvirus 5 [2] (arpe-19). In addition, the cytotoxic concentration (CC50) at 144 h in data set [3] and in data set [5] was above 50 µM throughout.
Take `Fc1cc(F)c(F)c(-c2c3nc(c4ccc([nH]4)c(-c4c(F)c(F)cc(F)c4F)c4ccc([nH]4)c(-c4ccccc4)c4ccc2[nH]4)C=C3)c1F`: the selectivity ratio at 144 h in data set [1] is 3.38. Moreover, the CC50 at 144 h in [3] was 22.3 µM. Moreover, the IC50 with Human betaherpesvirus 5 [4] (setting [12]) turned out to be 6.6 µM.
In the case of `O=[N+]([O-])c1cc(F)cc(-c2c3ccc([nH]3)c(-c3c(F)c(F)cc(F)c3F)c3nc(c4ccc([nH]4)c(-c4c(F)c(F)cc(F)c4F)c4ccc2[nH]4)C=C3)c1`, the CC50 at 144 h in data set [3] amounted to 50 µM. In addition, the IC50 result in the data set on Human betaherpesvirus 5 [4] (mrc5) is “Not Active”.
Turning to `CN(C)c1c(F)c(F)c(-c2c3ccc([nH]3)c(-c3c(F)c(F)cc(F)c3F)c3nc(c4ccc([nH]4)c(-c4c(F)c(F)cc(F)c4F)c4ccc2[nH]4)C=C3)c(F)c1F`, the selectivity ratio at 144 h in [1] is above 23.6. Further, the 50% cytotoxic concentration (CC50) at 144 h in data set [3] was above 50 µM. The IC50 is 2.11 µM with Human betaherpesvirus 5 [4] (setting [12]) and “Not Active” with Human betaherpesvirus 5 [10] (arpe-19).
Take `Fc1ccccc1-c1c2nc(c3ccc([nH]3)c(-c3ccccc3F)c3ccc([nH]3)c(-c3ccccc3F)c3ccc1[nH]3)C=C2`: the IC50 entry with Human betaherpesvirus 5 [2] (arpe-19) and with Human betaherpesvirus 5 [4] (mrc5) was “Not Active” throughout. Besides, the CC50 at 144 h in data set [3] and in data set [5] was above 50 µM throughout.
